Here are results for five compounds from patent US20190380978A1, “SOLID ORAL DOSAGE FORMS OF 2R,6R-HYDROXYNORKETAMINE OR DERIVATIVES THEREOF” (priority 2016, published 2019).

One data set relates to plasma binding proteins. To be noted: background statement on SSRIs; cited from earlier work.
For a further data set, the target named is T1, UGT1A1 (Homo sapiens, UniProt P22309).
T1 sequence (P22309 26-533): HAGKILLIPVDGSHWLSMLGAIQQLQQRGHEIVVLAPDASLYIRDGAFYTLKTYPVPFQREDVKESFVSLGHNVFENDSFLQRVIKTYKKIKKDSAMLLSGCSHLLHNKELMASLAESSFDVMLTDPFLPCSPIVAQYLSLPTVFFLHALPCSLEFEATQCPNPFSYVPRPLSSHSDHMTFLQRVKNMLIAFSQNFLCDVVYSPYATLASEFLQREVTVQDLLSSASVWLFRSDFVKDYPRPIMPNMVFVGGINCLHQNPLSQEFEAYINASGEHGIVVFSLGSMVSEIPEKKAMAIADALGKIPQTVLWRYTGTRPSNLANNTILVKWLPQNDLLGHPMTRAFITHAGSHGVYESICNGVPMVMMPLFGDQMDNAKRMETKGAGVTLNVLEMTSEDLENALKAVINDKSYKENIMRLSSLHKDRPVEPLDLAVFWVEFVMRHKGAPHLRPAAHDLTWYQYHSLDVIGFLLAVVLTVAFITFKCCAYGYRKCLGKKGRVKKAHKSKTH
Nature of the data set: UGT inhibition assay, UGT1A1. The class given is in vitro ADME. An excerpt:
2R,6R-hydroxynorketamine was therefore investigated for its potential to inhibit this isozyme, along with that of the major UGT isozyme, UGT1A1, using a UGT inhibition assay.

A further data set is described as follows: in vitro. Particulars: human.
For another data set, the target named is UGT2B7 (Homo sapiens, UniProt P16662). Nature of the data set: UGT inhibition assay, UGT2B7. It counts as in vitro ADME.
UGT2B7, sequence (P16662 24-529): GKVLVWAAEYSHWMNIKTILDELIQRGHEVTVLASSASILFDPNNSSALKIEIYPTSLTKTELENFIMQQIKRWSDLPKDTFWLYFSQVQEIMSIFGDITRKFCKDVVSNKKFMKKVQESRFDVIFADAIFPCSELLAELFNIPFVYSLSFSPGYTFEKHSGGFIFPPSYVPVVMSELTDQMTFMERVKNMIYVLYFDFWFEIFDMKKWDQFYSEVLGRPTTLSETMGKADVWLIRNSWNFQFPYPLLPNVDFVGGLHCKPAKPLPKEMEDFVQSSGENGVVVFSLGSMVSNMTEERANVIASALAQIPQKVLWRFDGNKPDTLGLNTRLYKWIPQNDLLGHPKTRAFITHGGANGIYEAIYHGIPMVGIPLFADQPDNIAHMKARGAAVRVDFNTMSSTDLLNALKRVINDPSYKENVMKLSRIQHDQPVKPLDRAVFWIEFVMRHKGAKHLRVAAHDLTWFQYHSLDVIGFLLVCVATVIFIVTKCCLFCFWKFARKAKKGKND

Where a name gives a salt, the structure may show the parent alone.

Regarding `Fc1ccc([C@@H]2CCNC[C@H]2COc2ccc3c(c2)OCO3)cc1` [paroxetine], the protein bound with plasma binding proteins is recorded as 95%.

Broadly, the IC50 is the concentration needed to halve the response being measured. Read a low IC50 as greater potency. As to `COC(=O)N[C@H](C(=O)N[C@@H](Cc1ccccc1)[C@@H](O)CN(Cc1ccc(-c2ccccn2)cc1)NC(=O)[C@@H](NC(=O)OC)C(C)(C)C)C(C)(C)C` [Atazanavir], at UGT1A1, half-maximal inhibition (IC50) required 0.153 µM.

The Papp A→B is how fast a substance crosses the layer from the apical side. The low end stands for poor permeation, the high end for ready permeation. In general, Papp B→A refers to the apparent permeability from the basolateral to the apical side of a cell layer. Take `CC(C)NCC(O)COc1cccc2ccccc12` (centres unmarked) [propranolol, reference compound]: the recovery in “in vitro” (Caco-2, Direction = A2B Mean % Recovery, Caco-2, A2B) is 71.1%; in “in vitro” (Caco-2, Direction = B2A Mean % Recovery, Caco-2, B2A) it was 82.8%. Further, the Papp A→B amounted to 26.7 ×10⁻⁶ cm/s in “in vitro” (Caco-2, Direction = A2B Mean Papp, Caco-2, A2B, mean, n 2); 26 ×10⁻⁶ cm/s in “in vitro” (Caco-2, Direction = A2B Papp Replicate 1, Caco-2, A2B, replicate 1); 27.4 ×10⁻⁶ cm/s in the data set “in vitro” (Caco-2, Direction = A2B Papp Replicate 2, Caco-2, A2B, replicate 2). The same compound came in with a Papp B→A in “in vitro” (Caco-2, Direction = B2A Papp Replicate 2, Caco-2, B2A, replicate 2) of 26.2 ×10⁻⁶ cm/s.

For `CNCCC(Oc1ccc(C(F)(F)F)cc1)c1ccccc1` (centres unmarked) [fluoxetine], in the data set on plasma binding proteins, the protein bound is recorded as 94%.

Regarding `N[C@@]1(c2ccccc2Cl)CCC[C@@H](O)C1=O` [2R-6R-Hydroxynorketamine Hydrochloride, 2R,6R-hydroxynorketamine hydrochloride], the IC50 on UGT2B7 and on UGT1A1 was above 100 µM throughout.
